Data published in patent US9453026B2, “ACC inhibitors and uses thereof” (Gilead Apollo, Inc., priority 2011, dated 2016).

Assays:
[1] = molecular target: ACC1 (Homo sapiens, UniProt Q13085); test: In vitro ACC1 inhibition assay (ADP-Glo); format: biochemical; conditions: read-out: ACC1
Description: An exemplary procedure for the in vitro ACC inhibition assay, which can be used to determine the inhibitory action of compounds of the invention toward either ACC1 or ACC2, follows. The ADP-Glo™ Kinase Assay kit from Promega was used. The ADP-Glo™ Kinase Assay is a luminescent ADP detection assay to measure enzymatic activity by quantifying the amount of ADP produced during an enzyme reaction. The assay is performed in two steps; first, after the enzyme reaction, an equal volume of ADP-Glo™ Reagent is added to terminate the reaction and deplete the remaining ATP. Second, the Kinase Detection Reagent is added to simultaneously convert ADP to ATP and allow the newly synthesized ATP to be measured using a luciferase/luciferin reaction. Luminescence can be correlated to ADP concentrations by using an ATP-to-ADP conversion curve. The detailed procedure is as follows. 50 μL of the compound being tested (600 uM in DMSO) was added to a 384-well dilution plate. The compound was diluted 1:3 in succession in DMSO for each row for 11 wells. 0.5 μL ACC2 working solution was added to 384-well white Optiplate assay plate. 0.5 μL diluted compound solution in each column from step 2 to assay plate, each row containing 2 replicates. […] The plates were incubated at room temperature for 15 minutes. 5 μL substrate working solution was added to each well to initiate reaction. […] Plates were incubated at room temperature for 60 minutes. 10 μL ADP glo reagent was added. Plates were incubated at room temperature for 40 minutes. 20 μL kinase detection reagent was added.
Data for each concentration, as well as the positive and negative controls were averaged, and the standard deviation calculated. Percent inhibition was calculated by the formula: 100× (average negative control−compound)/(average negative control−average positive control). The IC50 for each compound was calculated by fitting the data with a non-linear regression equation: Y=Bottom+(Top-Bottom)/(1+10^((Log IC50−X)*HillSlope)), where X is the log of compound concentration and Y is percent inhibition.
The compound numbers correspond to the compound numbers in Table 1.

[2] = molecular target: ACC2 (Homo sapiens, UniProt O00763); test: In vitro ACC2 inhibition assay (ADP-Glo); format: biochemical; conditions: read-out: ACC2
Sequence of ACC2 (O00763 whole entry, species assumed): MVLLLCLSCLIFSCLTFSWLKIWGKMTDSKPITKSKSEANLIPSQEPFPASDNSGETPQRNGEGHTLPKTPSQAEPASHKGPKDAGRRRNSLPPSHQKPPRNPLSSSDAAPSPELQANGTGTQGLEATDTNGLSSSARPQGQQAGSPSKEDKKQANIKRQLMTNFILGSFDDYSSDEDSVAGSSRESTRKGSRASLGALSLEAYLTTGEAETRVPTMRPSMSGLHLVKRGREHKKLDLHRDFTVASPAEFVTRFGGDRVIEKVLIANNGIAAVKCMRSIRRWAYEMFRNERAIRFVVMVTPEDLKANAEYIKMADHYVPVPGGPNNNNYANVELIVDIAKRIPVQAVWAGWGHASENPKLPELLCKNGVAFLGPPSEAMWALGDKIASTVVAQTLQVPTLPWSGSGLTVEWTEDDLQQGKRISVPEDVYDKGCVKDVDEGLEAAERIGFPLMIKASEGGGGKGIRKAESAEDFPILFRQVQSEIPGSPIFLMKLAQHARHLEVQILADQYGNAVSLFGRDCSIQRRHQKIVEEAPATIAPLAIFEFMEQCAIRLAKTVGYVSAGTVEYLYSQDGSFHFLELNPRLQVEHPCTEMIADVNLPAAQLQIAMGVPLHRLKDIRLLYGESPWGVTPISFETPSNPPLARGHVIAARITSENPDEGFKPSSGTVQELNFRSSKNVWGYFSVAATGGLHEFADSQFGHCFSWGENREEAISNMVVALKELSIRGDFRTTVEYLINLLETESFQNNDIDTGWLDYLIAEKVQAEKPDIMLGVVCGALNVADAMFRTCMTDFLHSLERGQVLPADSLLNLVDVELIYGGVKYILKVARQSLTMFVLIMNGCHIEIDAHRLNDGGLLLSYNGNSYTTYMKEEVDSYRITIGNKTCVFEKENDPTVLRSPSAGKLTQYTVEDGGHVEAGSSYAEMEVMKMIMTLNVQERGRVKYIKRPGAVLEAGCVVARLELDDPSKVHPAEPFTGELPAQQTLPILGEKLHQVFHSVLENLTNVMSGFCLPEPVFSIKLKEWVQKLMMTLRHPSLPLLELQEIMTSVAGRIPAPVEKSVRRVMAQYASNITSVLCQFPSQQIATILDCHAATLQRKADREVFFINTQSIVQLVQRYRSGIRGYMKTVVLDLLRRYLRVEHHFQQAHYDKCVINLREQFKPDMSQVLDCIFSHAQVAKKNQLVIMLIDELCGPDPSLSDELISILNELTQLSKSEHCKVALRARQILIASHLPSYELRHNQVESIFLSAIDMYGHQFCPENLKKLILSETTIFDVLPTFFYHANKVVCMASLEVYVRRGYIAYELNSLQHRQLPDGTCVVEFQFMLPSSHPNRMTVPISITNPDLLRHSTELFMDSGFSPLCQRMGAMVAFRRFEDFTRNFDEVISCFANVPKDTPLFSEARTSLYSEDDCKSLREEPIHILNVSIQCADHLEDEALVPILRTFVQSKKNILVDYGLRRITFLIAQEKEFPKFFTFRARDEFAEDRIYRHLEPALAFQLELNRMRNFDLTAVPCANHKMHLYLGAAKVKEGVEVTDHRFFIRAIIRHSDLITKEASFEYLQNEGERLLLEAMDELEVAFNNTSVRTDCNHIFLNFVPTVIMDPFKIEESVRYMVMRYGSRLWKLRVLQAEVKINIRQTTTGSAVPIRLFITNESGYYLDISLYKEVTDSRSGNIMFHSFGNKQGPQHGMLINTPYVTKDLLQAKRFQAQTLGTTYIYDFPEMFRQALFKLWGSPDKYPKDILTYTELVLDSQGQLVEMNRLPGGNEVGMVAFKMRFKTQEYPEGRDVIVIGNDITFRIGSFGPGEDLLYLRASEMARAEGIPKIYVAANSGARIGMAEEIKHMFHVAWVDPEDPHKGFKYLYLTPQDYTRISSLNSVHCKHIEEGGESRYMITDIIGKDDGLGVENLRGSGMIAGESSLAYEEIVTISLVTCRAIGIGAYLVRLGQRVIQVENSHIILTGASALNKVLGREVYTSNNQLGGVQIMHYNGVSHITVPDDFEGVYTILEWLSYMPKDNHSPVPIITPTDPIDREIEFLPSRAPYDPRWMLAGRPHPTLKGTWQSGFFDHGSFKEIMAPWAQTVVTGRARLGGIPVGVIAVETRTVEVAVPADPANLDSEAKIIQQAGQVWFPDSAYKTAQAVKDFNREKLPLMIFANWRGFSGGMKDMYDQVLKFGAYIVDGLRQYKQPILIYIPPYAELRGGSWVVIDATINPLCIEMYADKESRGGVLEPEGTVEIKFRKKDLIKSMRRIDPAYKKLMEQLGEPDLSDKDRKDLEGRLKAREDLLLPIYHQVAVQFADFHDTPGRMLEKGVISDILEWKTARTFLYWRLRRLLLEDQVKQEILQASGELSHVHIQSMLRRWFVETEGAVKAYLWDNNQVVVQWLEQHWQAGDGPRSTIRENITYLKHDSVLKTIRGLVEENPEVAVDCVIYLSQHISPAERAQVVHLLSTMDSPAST
Method in brief: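 Enzyme (human ACC1 or ACC2) and compound, serially diluted 1:3 over 11 points from a 600 uM DMSO stock, were preincubated 15 min before substrate addition.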

SMILES	IC50 [1]	IC50 [2]
Cc1c(-c2ncco2)sc2c1c(=O)n(C(C)(C)C(N)=O)c(=O)n2C[C@H](OC(C)C)c1ccccc1OC(F)F [I-268, 2-[1-[(2R)-2-[2-(difluoromethoxy)phenyl]-2-(propan-2-yloxy)ethyl]-5-methyl-6-(1,3-oxazol-2-yl)-2,4-dioxo-1H,2H,3H,4H-thieno[2,3-d]pyrimidin-3-yl]-2-methylpropanamide]	< 100 nM	< 100 nM
CCOc1ccccc1CCn1c(=O)n(C(C)(C)C(N)=O)c(=O)c2c(C)c(-c3ncco3)sc21 [I-139, 2-[1-[2-(2-ethoxyphenyl)ethyl]-5-methyl-6-(1,3-oxazol-2-yl)-2,4-dioxo-1H,2H,3H,4H-thieno[2,3-d]pyrimidin-3-yl]-2-methylpropanamide]	< 1000 nM	< 1000 nM
Cc1c(-c2ncco2)sc2c1c(=O)n(C(C)(C)C(=O)O)c(=O)n2C[C@H](OC1CCOCC1)c1ccccc1COC(C)C [I-297, 2-methyl-2-[5-methyl-1-[(2R)-2-(oxan-4-yloxy)-2-[2-[(propan-2-yloxy)methyl]phenyl]ethyl]-6-(1,3-oxazol-2-yl)-2,4-dioxo-1H,2H,3H,4H-thieno[2,3-d]pyrimidin-3-yl]propanoic acid]	< 100 nM	< 100 nM
CCOC(=O)c1sc2c(c1C)c(=O)n(CC(=O)O)c(=O)n2CCc1ccccc1F [I-32, 2-[6-(ethoxycarbonyl)-1-[2-(2-fluorophenyl)ethyl]-5-methyl-2,4-dioxo-1H,2H,3H,4H-thieno[2,3-d]pyrimidin-3-yl]acetic acid]	< 5000 nM	< 5000 nM
Cc1c(-c2ncco2)sc2c1c(=O)n(C(C)(C)C(=O)O)c(=O)n2C[C@H](OC1CCC(=O)CC1)c1ccccc1 [I-145, (R)-2-methyl-2-(5-methyl-6-(oxazol-2-yl)-2,4-dioxo-1-(2-((4-oxocyclohexyl)oxy)-2-phenylethyl)-1,2-dihydrothieno[2,3-d]pyrimidin-3(4H)-yl)propanoic acid]	< 100 nM	< 1000 nM
Cc1ccccc1[C@H](Cn1c(=O)n(C(C)(C)C(=O)O)c(=O)c2c(C)c(-c3ncco3)sc21)OC1CCOCC1 [I-282, 2-methyl-2-[5-methyl-1-[(2R)-2-(2-methylphenyl)-2-(oxan-4-yloxy)ethyl]-6-(1,3-oxazol-2-yl)-2,4-dioxo-1H,2H,3H,4H-thieno[2,3-d]pyrimidin-3-yl]propanoic acid]	< 100 nM	< 100 nM
Cc1c(-c2ncco2)sc2c1c(=O)n(C(C)(C)C(=O)O)c(=O)n2C[C@@H](OC1CCOCC1)c1ccccc1CC#N [I-303, (S)-2-(1-(2-(2-(cyanomethyl)phenyl)-2-((tetrahydro-2H-pyran-4-yl)oxy)ethyl)-5-methyl-6-(oxazol-2-yl)-2,4-dioxo-1,2-dihydrothieno[2,3-d]pyrimidin-3(4H)-yl)-2-methylpropanoic acid]	< 100 nM	< 100 nM
CCc1ccccc1[C@H](Cn1c(=O)n(C(C)(C)C(=O)O)c(=O)c2c(C)c(-c3ncco3)sc21)OCCO [I-255, 2-[1-[(2R)-2-(2-ethylphenyl)-2-(2-hydroxyethoxy)ethyl]-5-methyl-6-(1,3-oxazol-2-yl)-2,4-dioxo-1H,2H,3H,4H-thieno[2,3-d]pyrimidin-3-yl]-2-methylpropanoic acid]	< 100 nM	< 100 nM
COc1ccccc1[C@H](Cn1c(=O)n(Cc2nnc[nH]2)c(=O)c2c(C)c(-c3ncco3)sc21)OC1CCOCC1 [I-289, 1-[(2R)-2-(2-methoxyphenyl)-2-(oxan-4-yloxy)ethyl]-5-methyl-6-(1,3-oxazol-2-yl)-3-(4H-1,2,4-triazol-3-ylmethyl)-1H,2H,3H,4H-thieno[2,3-d]pyrimidine-2,4-dione]	< 100 nM	< 100 nM
COc1ccccc1[C@H](Cn1c(=O)n(C(C)(C)C(=O)NC(C)C)c(=O)c2c(C)c(-c3ncco3)sc21)OC(C)C [I-242, 2-[1-[(2R)-2-(2-methoxyphenyl)-2-(propan-2-yloxy)ethyl]-5-methyl-6-(1,3-oxazol-2-yl)-2,4-dioxo-1H,2H,3H,4H-thieno[2,3-d]pyrimidin-3-yl]-2-methyl-N-(propan-2-yl)propanamide]	< 100 nM	< 100 nM
COc1ccccc1[C@H](Cn1c(=O)n(C(C)(C)C(N)=O)c(=O)c2c(C)c(-c3ncco3)sc21)OCC1CCOCC1 [I-260, 2-[1-[(2R)-2-(2-methoxyphenyl)-2-(oxan-4-ylmethoxy)ethyl]-5-methyl-6-(1,3-oxazol-2-yl)-2,4-dioxo-1H,2H,3H,4H-thieno[2,3-d]pyrimidin-3-yl]-2-methylpropanamide]	< 100 nM	< 100 nM
CCOC(=O)c1sc2c(c1C)c(=O)n(CC(=O)O)c(=O)n2CCc1ccccc1 [I-13]	< 5000 nM	< 5000 nM
Cc1c(-c2ncco2)sc2c1c(=O)n(C(C)(C)C(=O)O)c(=O)n2C[C@H](OC(C)C)c1ccccc1OC(F)(F)F [I-265, (R)-2-(1-(2-isopropoxy-2-(2-(trifluoromethoxy)phenyl)ethyl)-5-methyl-6-(oxazol-2-yl)-2,4-doxo-1,2-dihydrotheno[2,3-d]pyrimidin-3(4H)-yl)-2-methylpropanoic acid]	< 1000 nM	
COc1ccccc1[C@H](Cn1c(=O)n(C(C)(C)C(=O)N2CCC2)c(=O)c2c(C)c(-c3ncco3)sc21)OCC1CCOCC1 [I-275, 3-[1-(azetidin-1-yl)-2-methyl-1-oxopropan-2-yl]-1-[(2R)-2-(2-methoxyphenyl)-2-(oxan-4-ylmethoxy)ethyl]-5-methy-6-(1,3-oxazol-2-yl)-1H,2H,3H,4H-thieno[2,3-d]pyrimidine-2,4-dione]	< 100 nM	
Cc1c(-c2ncco2)sc2c1c(=O)n(C(C)(C)C(N)=O)c(=O)n2C[C@H](OC1CCOCC1)c1ccccc1Cl [I-252, 2-[1-[(2R)-2-(2-chlorophenyl)-2-(oxan-4-yloxy)ethyl]-5-methyl-6-(1,3-oxazol-2-yl)-2,4-dioxo-1H,2H,3H,4H-thieno[2,3-d]pyrimidin-3-yl]-2-methylpropanamide]	< 1000 nM	
Cc1c(-c2ncco2)sc2c1c(=O)n(C(C)(C)C(=O)N1CCC1)c(=O)n2C[C@H](OC1CCOCC1)c1ccccc1O [I-284, 3-[1-(azetidin-1-yl)-2-methyl-1-oxopropan-2-yl]-1-[(2R)-2-(2-hydroxyphenyl)-2-(oxan-4-yloxy)ethyl]-5-methyl-6-(1,3-oxazol-2-yl)-1H,2H,3H,4H-thieno[2,3-d]pyrimidine-2,4-dione]	< 100 nM	
COc1cc(Br)ccc1[C@H](Cn1c(=O)n(C(C)(C)C(=O)O)c(=O)c2c(C)c(-c3ncco3)sc21)OC1CCOCC1 [I-270, 2-[1-[(2R)-2-(4-bromo-2-methoxyphenyl)-2-(oxan-4-yloxy)ethyl]-5-methyl-6-(1,3-oxazol-2-yl)-2,4-dioxo-1H,2H,3H,4H-thieno[2,3-d]pyrimidin-3-yl]-2-methylpropanoic acid]	< 5000 nM	
Cc1c(-c2ncco2)sc2c1c(=O)n(C(C)(C)C(=O)O)c(=O)n2C[C@H](OC1CCOCC1)c1ccccc1O [I-273, 2-[1-[(2R)-2-(2-hydroxyphenyl)-2-(oxan-4-yloxy)ethyl]-5-methyl-6-(1,3-oxazol-2-yl)-2,4-dioxo-1H,2H,3H,4H-thieno[2,3-d]pyrimidin-3-yl]-2-methylpropanoic acid]	< 100 nM	
COc1ccccc1[C@H](Cn1c(=O)n(C(C)(C)C(=O)O)c(=O)c2c(C)c(-c3ncco3)sc21)OC1CCC(=O)CC1 [I-276, (R)-2-(1-(2-(2-methoxyphenyl)-2-((4-oxocyclohexyl)oxy)ethyl)-5-methyl-6-(oxazol-2-yl)-2,4-dioxo-1,2-dihydrotheno[2,3-d]pyrimidin-3(4H)-yl)-2-methylpropanoic acid]	< 100 nM	
COc1ccccc1[C@@H](O)Cn1c(=O)n(C(C)(C)C(=O)O)c(=O)c2c(C)c(-c3ncco3)sc21 [I-248, 2-[1-[(2R)-2-hydroxy-2-(2-methoxyphenyl)ethyl]-5-methyl-6-(1,3-oxazol-2-yl)-2,4-dioxo-1H,2H,3H,4H-thieno[2,3-d]pyrimidin-3-yl]-2-methylpropanoic acid]	< 1000 nM	
Cc1c(-c2ncco2)sc2c1c(=O)n(C(C)(C)C(=O)O)c(=O)n2C[C@H](OC1CCOCC1)c1ccccc1C(F)(F)F [I-266, 2-methyl-2-[5-methyl-1-[(2R)-2-(oxan-4-yloxy)-2-[2-(trifluoromethyl)phenyl]ethyl]-6-(1,3-oxazol-2-yl)-2,4-dioxo-1H,2H,3H,4H-thieno[2,3-d]pyrimidin-3-yl]propanoic acid]	< 1000 nM	
COc1ccccc1[C@H](Cn1c(=O)n(C(C)(C)C(=O)O)c(=O)c2c(C)c(-c3ncco3)sc21)OCC1COC1 [I-269, (R)-2-(1-(2-(2-methoxyphenyl)-2-(oxetan-3-ylmethoxy)ethyl)-5-methyl-6-(oxazol-2-yl)-2,4-dioxo-1,2-dihydrothieno[2,3-d]pyrimidin-3(4H)-yl)-2-methylpropanoic acid]	< 5000 nM	
